Source: patent US12049445B2, “Compounds having S1P5 receptor agonistic activity” (ONO PHARMACEUTICAL CO., LTD., priority 2018, dated 2024)
Counter-ions that a name gives are not always drawn.

What was measured:
human S1P1 (EDG-1) [1] = target: T1, human S1P1 (EDG-1) (Homo sapiens, UniProt P21453); assay: S1P receptor agonist activity by monitoring intracellular calcium concentration (S1P1); assay type: cell-based; details: for EC50: CHO cells overexpressing human S1P1 (EDG-1) gene, intracellular calcium increase, S1P signal = 100% activity
T1 sequence (P21453 whole entry): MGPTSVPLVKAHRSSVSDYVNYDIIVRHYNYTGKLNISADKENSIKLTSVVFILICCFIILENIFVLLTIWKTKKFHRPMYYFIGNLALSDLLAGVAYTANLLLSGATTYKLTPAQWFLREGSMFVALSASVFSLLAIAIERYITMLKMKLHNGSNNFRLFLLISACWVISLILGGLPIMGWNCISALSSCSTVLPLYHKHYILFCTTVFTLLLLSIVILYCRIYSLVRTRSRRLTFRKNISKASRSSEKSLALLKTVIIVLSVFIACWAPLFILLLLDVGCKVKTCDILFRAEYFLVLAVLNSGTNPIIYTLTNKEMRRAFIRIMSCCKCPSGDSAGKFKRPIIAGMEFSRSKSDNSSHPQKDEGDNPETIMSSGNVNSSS
Description: (§1) Chinese hamster ovary (CHO) cells in which each of a human S1P1 (EDG-1) gene or a human S1P5 (EDG-8) gene was overexpressed were cultured in Ham's F-12 medium containing 10% FBS (fetal bovine serum), penicillin/streptomycin, and geneticin (0.25 mg/mL). The culture medium was replaced one day before performing a calcium assay and on the day of the assay. Four hours after the culture medium replacement, the culture medium was removed, and washing was performed once with phosphate-buffered saline. After the cells were detached by adding 0.05% trypsin EDTA, the cells were recovered by adding a culture medium. The recovered cell suspension was centrifuged to remove the supernatant, and the cells were suspended in phosphate-buffered saline, and the cell number was counted. The cells were suspended in a Hanks solution containing Calcium 6 Assay Reagent (manufactured by Molecular Devices, LLC), 20 mM HEPES, and 2.5 mM probenecid at a cell density of 1.1×10^6 cells/mL, and the suspension was incubated at 37° C. for about 1 hour. Thereafter, the supernatant was removed by centrifugation, and the cells were suspended in a Hanks solution containing 20 mM HEPES, 2.5 mM probenecid, and 0.1% BSA at a cell density of 2.2×10^6 cells/mL. The suspension was inoculated in a 96-well plate at 80 μL/well. The plate was set on a fluorescent drug screening system (FDSS 6000), and the compound and S1P were sequentially added thereto, and an increase in intracellular calcium concentration between before and after the addition was measured at an excitation wavelength of 480 nm and a fluorescence wavelength of 540 nm. The increase in intracellular calcium concentration was evaluated by the signal intensity at the fluorescence wavelength, and the agonist activity of each compound was calculated by assuming the signal intensity when S1P was added instead of the compound to be 100% activity.

human S1P5 (EDG-8) = human S1P5 (EDG-8) (Homo sapiens, UniProt Q9H228); assay: S1P receptor agonist activity by monitoring intracellular calcium concentration (S1P5); assay type: cell-based; details: for EC50: CHO cells overexpressing human S1P5 (EDG-8) gene, intracellular calcium increase, S1P signal = 100% activity; for balance of S1P5 receptor agonist activity against S1P1 receptor agonist activity (in words): comparison of calcium assay agonist activities at S1P1 and S1P5
Sequence of human S1P5 (EDG-8) (Q9H228 whole entry): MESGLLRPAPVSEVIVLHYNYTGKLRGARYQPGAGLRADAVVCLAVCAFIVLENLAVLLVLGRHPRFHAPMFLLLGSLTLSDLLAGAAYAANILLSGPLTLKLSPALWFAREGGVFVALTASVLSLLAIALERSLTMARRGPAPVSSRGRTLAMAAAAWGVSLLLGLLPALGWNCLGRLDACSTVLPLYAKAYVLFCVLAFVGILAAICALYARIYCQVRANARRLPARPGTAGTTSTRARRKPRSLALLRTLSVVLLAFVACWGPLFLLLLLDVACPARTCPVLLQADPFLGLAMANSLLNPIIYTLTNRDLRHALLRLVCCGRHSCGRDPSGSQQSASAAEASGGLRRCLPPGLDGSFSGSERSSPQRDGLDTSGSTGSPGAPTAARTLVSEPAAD
Description: as §1

human S1P1 (EDG-1) [2] = target: T1, human S1P1 (EDG-1); assay: Inhibition of binding of [33P]-S1P to S1P1, CHO membrane fraction; details: membrane fraction of CHO cells overexpressing human S1P1; room temperature 60 minutes; read-out: inhibitory activity (IC50 value) for binding of [33P]-S1P to S1P1
Description: (§2) A reaction was carried out in a 96-well microplate by using a membrane fraction of Chinese hamster ovary (CHO) cells each of which was made to overexpress human S1P1 (EDG-1) gene or human S1P5 gene respectively, in an amount of the membrane fraction of 60 μg protein/mL. To each of the well, 100 μL of a vehicle (DMSO) solution or a compound solution at a two-fold concentration each diluted with Binding Buffer (50 mmol/L Tris pH 7.5, 5 mmol/L MgCl2, 0.5% BSA, Complete EDTA free (1 tablet/50 mL)) and 50 μL of 0.16 nmol/L [^33P]-S1P (manufactured by American Radiolabeled Chemicals, Inc.) diluted with Binding Buffer were added, and thereafter, the membrane fraction solution (50 μL) was added thereto, and a reacted was allowed to proceed at room temperature for 60 minutes. After the reaction, suction filtration was carried out by using a 96-well Unifilter, followed by washing with a washing buffer (50 mmol/L Tris pH 7.5, 0.5% BSA) ([…]), and then dried at 50 to 60° C. for 30 to 60 minutes. MicroScint (trade name) 20 (50 μL/well) was added thereto, and the plate was covered with TopSeal-A, and then a radioactivity was measured with TopCount (manufactured by PerkinElmer Co., Ltd.)
(§3) The compound concentration at which 50% of the specific binding of [^33P]-S1P to human S1P1 and human S1P5 was replaced (IC50 value) was used as an evaluation item. […]

human S1P5 = target: T2, human S1P5 (Homo sapiens, UniProt Q9H228); assay: Inhibition of binding of [33P]-S1P to S1P5, CHO membrane fraction; details: membrane fraction of CHO cells overexpressing human S1P5; room temperature 60 minutes; read-out: inhibitory activity (IC50 value) for binding of [33P]-S1P to S1P5
T2 construct: expressed in transfected cells; host or cells: membrane fraction of Chinese hamster ovary (CHO) cells
T2 sequence (Q9H228 whole entry): as above
Description: as §2, §3

SMILES	EC50 (human S1P1 (EDG-1) [1]) [nM]	EC50 (human S1P5 (EDG-8)) [nM]	other results
CCCCCCCCOc1ccc2c(c1)CCC(CN1CC(C(=O)O)C1)=C2C.Cl [Comparative Compound A, 1-{[1-methyl-6-(octyloxy)-3,4-dihydro-2-naphthalenyl]methyl}-3-azetidinecarboxylic acid hydrochloride, reference compound]	< 3	3	balance of S1P5 receptor agonist activity against S1P1 receptor agonist activity (in words) (human S1P5 (EDG-8)): S1P1 receptor agonist activity was stronger than the S1P5 receptor agonist activity
CCCc1ccc(COc2ccc3c(c2)CCC(CN2CC(C(=O)O)C2)=C3C)c(OC)c1 [Comparative Compound B, 1-({6-[(2-methoxy-4-propylbenzyl)oxy]-1-methyl-3,4-dihydro-2-naphthalenyl}methyl)-3-azetidinecarboxylic acid, reference compound]	0.2	2	balance of S1P5 receptor agonist activity against S1P1 receptor agonist activity (in words) (human S1P5 (EDG-8)): S1P1 receptor agonist activity was stronger than the S1P5 receptor agonist activity
CC1=C(CNCCC(=O)O)CCc2cc(OCCCC3CCCCC3)ccc21 [Comparative Compound C, 3-({[6-(3-cyclohexylpropoxy)-1-methyl-3,4-dihydro-2-naphthalenyl]methyl}amino)propanoic acid hydrochloride]	–	–	IC50 (human S1P1 (EDG-1) [2]): 1 nM; IC50 (human S1P5): 8.5 nM
C[C@H]1Cc2cc(OCCCC(F)(F)F)ccc2C=C1CN1CC(C(=O)O)C1 [Example 15 (34), 1-[[(3S)-3-methyl-6-(4,4,4-trifluorobutoxy)-3,4-dihydronaphthalen-2-yl]methyl]azetidine-3-carboxylic acid]	> 3000	20	–
[2H]C([2H])([2H])C([2H])([2H])C([2H])([2H])C([2H])([2H])Oc1ccc2c(c1)C[C@H](C)C(CN1CC(C(=O)O)C1)=C2 [Example 15 (70), 1-[[(3S)-3-methyl-6-(1,1,2,2,3,3,4,4,4-nonadeuteriobutoxy)-3,4-dihydronaphthalen-2-yl]methyl]azetidine-3-carboxylic acid]	> 3000	12	–
C[C@H]1Cc2cc(OCCCC(F)(F)F)ccc2C=C1CN1CC[C@@H](C(=O)O)C1 [Example 15 (72), (3R)-1-[[(3S)-3-methyl-6-(4,4,4-trifluorobutoxy)-3,4-dihydronaphthalen-2-yl]methyl]pyrrolidine-3-carboxylic acid]	> 3000	22	–
CCCCCOc1ccc2c(c1)C[C@H](C)C(CN1CC(C(=O)O)C1)=C2 [Example 15, 1-[((3S)-3-methyl-6-pentoxy-3,4-dihydronaphthalen-2-yl)methyl]azetidine-3-carboxylic acid]	> 3000	3	–
CC(N[C@H]1C[C@@H](C(=O)O)C1)C1=Cc2ccc(OCCCC(F)(F)F)cc2C[C@@H]1C (stereo partly drawn) [Example 47 (2), cis-3-({1-[(3S)-3-methyl-6-(4,4,4-trifluorobutoxy)-3,4-dihydro-2-naphthalenyl]ethyl}amino)cyclobutanecarboxylic acid]	> 30000	1100	–

More lines, main results first:

EC50 (human S1P1 (EDG-1) [1]) [nM]	EC50 (human S1P5 (EDG-8)) [nM]	SMILES	other results
> 10000	> 10000	COc1ccc2c(c1)C[C@H](C)C(CN1CC(F)(C(=O)O)C1)=C2 [Comparative Example, (S)-3-fluoro-1-[(6-methoxy-3-methyl-3,4-dihydronaphthalen-2-yl)methyl]azetidine-3-carboxylic acid, reference compound]	S1P1 receptor agonist activity (in words) (human S1P1 (EDG-1) [1]; calcium assay, CHO cells overexpressing human S1P1): did not have; S1P5 receptor agonist activity (in words) (human S1P5 (EDG-8); calcium assay, CHO cells overexpressing human S1P5): did not have
> 3000	15	C[C@H]1Cc2cc(OCCC(F)=C(F)F)ccc2C=C1CN1CC(F)(C(=O)O)C1 [Example 15 (52), 3-fluoro-1-[[(3S)-3-methyl-6-(3,4,4-trifluorobut-3-enoxy)-3,4-dihydronaphthalen-2-yl]methyl]azetidine-3-carboxylic acid]	–
> 30000	9	C[C@H]1Cc2cc(OC/C=C/C(F)(F)F)ccc2C=C1CN1CC(F)(C(=O)O)C1 [Example 15 (82), 3-fluoro-1-[[(3S)-3-methyl-6-[(E)-4,4,4-trifluorobut-2-enoxy]-3,4-dihydronaphthalen-2-yl]methyl]azetidine-3-carboxylic acid]	–
> 30000	26	C[C@H]1Cc2cc(OCCC(F)(F)F)ccc2C=C1CN1CC(F)(C(=O)O)C1 [Example 15 (86), 3-fluoro-1-{[(3S)-3-methyl-6-(3,3,3-trifluoropropoxy)-3,4-dihydro-2-naphthalenyl]methyl}-3-azetidinecarboxylic acid]	–
> 30000	98	CCCOCc1ccc2c(c1)C[C@H](C)C(CN1CC(C(=O)O)C1)=C2 [Example 57 (2), 1-{[(3S)-3-methyl-6-(propoxymethyl)-3,4-dihydro-2-naphthalenyl]methyl}-3-azetidinecarboxylic acid]	–
